Experimental data taken from US4430319A, “Radioactive iodine labeled phenolic amines” (State University of New York, priority 1982, dated 1984).

Experiment: Biodistribution of I-123 Compound in rats (i.v. injection, excised organs gamma counted)
Assay type: in vivo, Sprague-Dawley male rats
Conditions: for Blood/Brain: concentration ratio calculated from % dose/gram of wet tissue; for Biodistribution, Brain / Biodistribution, Heart / Biodistribution, Kidneys / Biodistribution, Liver / Biodistribution, Lungs / Biodistribution, Skin / Biodistribution, Spleen / Biodistribution, Stomach / Biodistribution, Thyroids / Biodistribution, Blood / Biodistribution, Muscle: average of 3; for Biodistribution, Blood: blood taken as 7% of body weight; for Biodistribution, Muscle: muscle taken as 40% of body weight
Method: Studies of distribution of the optimum radiopharmaceutical compound of the present invention in rats, the results of which are reflected in Table 1, were conducted according to standard practice in the pharmacological sciences, and therefore need not be described here in great detail. Nevertheless, for the sake of complete understanding of the present invention, some experimental details of these studies are briefly described below: Sprague-Dawley male rats (220-300 g) were injected intravenously (femoral vein) with a 0.2 ml solution (0.5-20. micro Ci) under light ether anaesthesia. At different time periods after the injection, the animals were sacrificed and organs of interest were excised and counted in a well counter. Percent dose was estimated by comparison of tissue counts to suitably diluted aliquots of the injected material. Total activities in blood and muscle were calculated by assuming that they are 7% and 40% of the body weight respectively. Sprague-Dawley male rats (220-300 g) under light ether anesthesia were injected intravenously with 0.2 ml of a saline solution containing 0.5-20 uCi of test compound (specific activity 0.5-1.0 uCi/mg). At different time periods after injection the animals were put under ether anesthesia and killed by cardiactomy. The organs of interest were excised, weighed and counted in a Beckman automatic gamma counter (Model 4000). The % dose/organ was determined by comparison of tissue radioactivity levels to suitably diluted aliquots of the injected dose. The approximate % dose/g of wet tissue or organ can be calculated by dividing the % dose/organ by the mean organ weight (mean weights: heart 0.85 g, brain 1.65 g, blood 18 g, liver 9 g, kidneys 1.9 g, lungs 1.6 g).

[1] = 2 min after i.v. injection, rats
[2] = 1 hr after i.v. injection, rats

In the case of `Cc1cc([123I])cc(CN(C)CCCN(C)C)c1O` [I-123 Compound, N,N,N-trimethyl-N'[2-hydroxy-3-methyl-5-iodobenzyl]-1,3-propanediamines], the Blood/Brain (2 min after i.v. injection) is reported as 14.84, the “Biodistribution, Brain” value [1] is reported as 2.74 % dose/organ and the “Biodistribution, Heart” value [1] is reported as 2.71 % dose/organ. The “Biodistribution, Kidneys” value [1] was 8.06 % dose/organ, the “Biodistribution, Liver” value [1] was 5.52 % dose/organ and the “Biodistribution, Lungs” value [1] was 36.53 % dose/organ. For the same compound, the “Biodistribution, Skin” value [1] was 6.73 % dose/organ, the “Biodistribution, Spleen” value [1] was 0.72 % dose/organ and the “Biodistribution, Stomach” value [1] was 0.80 % dose/organ. For the same compound, the “Biodistribution, Thyroids” value [1] was 0.59 % dose/organ, the “Biodistribution, Blood” value [1] was 2.02 % dose/organ and the “Biodistribution, Muscle” value [1] was 5.66 % dose/organ. For the same compound, the Blood/Brain (1 hr after i.v. injection) was 32.18, the “Biodistribution, Brain” value [2] was 2.50 % dose/organ and the “Biodistribution, Heart” value [2] was 0.29 % dose/organ. For the same compound, the “Biodistribution, Kidneys” value [2] was 2.87 % dose/organ, the “Biodistribution, Liver” value [2] was 4.68 % dose/organ and the “Biodistribution, Lungs” value [2] was 18.25 % dose/organ. For the same compound, the “Biodistribution, Skin” value [2] was 9.21 % dose/organ, the “Biodistribution, Spleen” value [2] was 1.58 % dose/organ and the “Biodistribution, Stomach” value [2] was 0.93 % dose/organ. The “Biodistribution, Thyroids” value [2] was 0.06 % dose/organ, the “Biodistribution, Blood” value [2] was 0.85 % dose/organ and the “Biodistribution, Muscle” value [2] was 12.77 % dose/organ. For the same compound, the “initial uptake in the brain, lung and liver” value (rats, i.v., Table 1, in words) was “high initial uptake” and the “persistence of uptake in the brain, lung and liver” value (rats, i.v., Table 1, in words) was “persists sufficiently to allow imaging”.
